Experimental data taken from ChEMBL document CHEMBL3507680, “University of Dundee, Gates Library screen for HepG2 cell viability”.

Experiment: Human HepG2 cell viability assay in 384 well format
Format: toxicity, cell-based
Design: dose 125 nL, time 70.5 hour; concentration not given beside the values
Details: HepG2 cells, read-out: Inhibition

Row | SMILES | cytotoxicity at 70.5 h [%]
1 | CCCc1n[nH]c(=O)n1Cc1ccccc1F | 2.4
2 | NC(=O)N1CCCC1COC(=O)c1ccc(F)cc1Br (stereo not given) | 12.5
3 | Cc1c(C)n(Cc2ccncc2)c2nc3c(c(N)c12)CCCCC3 | 25.4
4 | CN(CC(=O)N1CCOC(CCc2ccccc2)C1)Cc1ccccn1 (stereo not given) | -7.68
5 | COc1ccccc1CCN(C)Cc1nc(N)nc(N(C)C)n1 | -11.2
6 | Cc1ccc(CNC(C)c2ccc3[nH]c(=O)[nH]c3c2)s1 (stereo not given) | -1.82
7 | Cc1cc(C)n(CC(=O)N2CCCC(c3cc4cccnc4[nH]3)C2)n1 (stereo not given) | -3.24
8 | Cc1nn(C)c(C)c1CCC(=O)Nc1cn(C)c(=O)n(C)c1=O | -1.93
9 | CCC1(CC)C(=O)NC(=O)N/C1=N/c1cccc(OC)c1 | 26.5
10 | CC(NC(=O)N(C)C1CC1)c1ccc(Oc2cccnc2)c(F)c1 (stereo not given) | -8.76
11 | O=C1N(Cc2ccc(F)c(F)c2)CCCC1(O)CNCc1cccnc1 (stereo not given) | -4.19
12 | Cc1cc(C)n(C2CCCN(C(=O)CCNc3ncccn3)C2)n1 (stereo not given) | -2.87
13 | CC(c1nnc(-c2cccs2)o1)N1CCc2cncnc2C1 (stereo not given) | -1.71
14 | Cc1cs/c(=N/C(=O)c2csc(NCC(C)C)n2)[nH]1 | -4.1
15 | Cc1ncoc1C(=O)N1CCn2c(COc3cccnc3)cnc2C1C (stereo not given) | 17.8
16 | Cn1ncc2c1NC(=O)CSC2c1ccccc1Cl (stereo not given) | 14.7
17 | CCS(=O)(=O)c1ccc(N2CCC(NC(=O)c3ccccn3)CC2)cc1 | 29
18 | COc1ccc(-n2cnnc2SCCC#N)cn1 | -4.7
19 | c1cncc(CN(Cc2ccsc2)Cc2ccc(C3CCCCO3)o2)c1 (stereo not given) | 6.4
20 | CN(CCS(C)(=O)=O)C1CCCN(Cc2noc(C3CC3)n2)C1 (stereo not given) | 17.9
21 | Cc1nn(C)c(N2CCCN(C)CC2)c1CNC(=O)CC1CCCC1 | 0.191
22 | CC(C)n1cnnc1CNC(=O)c1cnc2ccccc2n1 | -3.77
23 | Cc1cc(N2CCCC(c3n[nH]c4ncccc34)C2)ncn1 (stereo not given) | -4.69

Row | SMILES | cytotoxicity at 70.5 h [%]
24 | CN(Cc1ccco1)[C@@H]1CN(Cc2ccncc2)C[C@@H]2CCCO[C@@H]21 | -13.9
25 | CC(C)c1noc(-c2ccnc(-n3cnc(C(=O)O)c3)c2)n1 | -14.7
26 | CS(=O)(=O)N1C[C@@H](Oc2ccccn2)[C@H]2OCCC[C@H]21 | -2.17
27 | CCS(=O)(=O)N1CC[C@H]2O[C@H](c3nc(C)no3)CC[C@H]21 | -14.9
28 | CSCCC(O)C(=O)N1CCN(Cc2cccc(Cl)c2)CC1 (stereo not given) | -12.9
29 | CN(Cc1nc(C2CC2)no1)C1CCCN(c2cccnn2)C1 (stereo not given) | -19.7
30 | Cc1noc(C)c1CN1CCc2ncnc(-c3cnn(C)c3)c2CC1 | -8.16
31 | OCCOCc1n[nH]c2c1CN(Cc1ccco1)C2 | 12.9
32 | CNS(=O)(=O)Cc1ccc(CNC(=O)c2cccc(C)n2)cc1 | -1.09
33 | CCc1cccc(OCCCN(C)C(=O)CN2CCNC2=O)c1 | 0.78
34 | CC(=O)N1CCCC(C(=O)N2Cc3nc(C)n(C)c(=O)c3C2)C1 (stereo not given) | -3.08
35 | COCC1c2nnn(CC3CC3)c2CCN1C(=O)c1cc(C)on1 (stereo not given) | -12.7
36 | Fc1cccc(-c2nc(CN3CCCC3Cn3cccn3)co2)c1 (stereo not given) | 15.8
37 | CC(=O)NCCCSCCOc1cccc(C#N)c1 | 2.91
38 | CCSc1cc(C(=O)NCc2ccccc2O)ccn1 | -4.36
39 | O=C(CNc1ccc(OC2CCOC2)cc1)NCc1ccc(F)cc1 (stereo not given) | -10.9
40 | O=C1Nc2ccccc2C12CCCN(Cc1ccncc1)C2 (stereo not given) | -10.6
41 | CN1CCN(Cc2noc(-c3cc(-c4ccccc4F)n[nH]3)n2)CC1 | 17.5
42 | CC(=O)NCC(=O)N1CCn2cc(CN(C)Cc3ccco3)nc2C1 | 2.22
43 | CS(=O)(=O)N1Cc2ccccc2CC2(CCN(Cc3ccncc3)C2)C1 (stereo not given) | -9.23
44 | CN1C(=O)C2(CCN(c3ncccc3C(=O)O)CC2)c2ccccc21 | -8.18
45 | N#CC1(NC(=O)COc2cc(Cl)cc(Cl)c2)CCSC1 (stereo not given) | -14.6
